Non-standard residues stand in square brackets, D forms with d. Residues, ends and D or L forms follow the SMILES beside them. pY = N[C@@H](Cc1ccc(OP(=O)(O)O)cc1)C(=O)O
The compounds below were run against T1, Grb2 SH2 domain (Homo sapiens, UniProt P62993) (assay: Competitive fluorescence polarization, Grb2 SH2). Settings: Table S3 unpaired validation; competition fluorescence polarization; probe FITC-Ahx-FDDPS(pY)VNVQN 30 nM; [SH2] 123 nM; mean.
T1 construct: one distantly-related SH2 domain from the adapter protein Grb2; His6-SUMO (N); mCh (only in the data set names 'Grb2mCh'; possibly an mCherry fusion, never explained); made in house
Assay type: binding
From the text: (§1) All peptides containing phosphorylated tyrosine, both fluorescently labelled and non-labelled, were produced by SynPeptide (China).

T1 sequence (P62993 60-152 limits assumed): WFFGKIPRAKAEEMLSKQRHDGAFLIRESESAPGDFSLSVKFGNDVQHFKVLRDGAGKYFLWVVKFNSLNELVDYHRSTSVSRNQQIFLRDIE

| Kd [nM] | Compound |
| --- | --- |
| 3.99 | Ac-QHNIHS-pY-INIPPG-NH2 [Syn-G2-2 (synthetic)] |
| 2250 | Ac-QHRLNN-pY-ENNRLG-NH2 [Syn-G2-6 (synthetic)] |
| 3240 | Ac-QIEVGT-pY-QNPHNG-NH2 [Syn-G2-7 (synthetic)] |
| 31.8 | Ac-QKEAHH-pY-VNWRTG-NH2 [Syn-G2-1 (synthetic)] |
| 487 | Ac-QLGHQR-pY-HNITPG-NH2 [Syn-G2-5 (synthetic)] |

The compounds below were run against T2, c-Src SH2 domain (Homo sapiens, UniProt P12931) (assay: Competitive fluorescence polarization, c-Src SH2). Settings: Table S3 unpaired validation; competition fluorescence polarization; probe FITC-Ahx-GDG-pY-EEISPLLL-NH2 30 nM; [SH2] 123-126 nM; mean.
T2 construct: the SH2 domains of two closely-related kinases from the Src subfamily (c-Src and Fyn); made in house
Assay type: binding
From the text: as §1

| Kd [nM] | Compound |
| --- | --- |
| 9660 | Ac-QKEAHH-pY-VNWRTG-NH2 [Syn-G2-1 (synthetic)] |

Same assay, conditions: Table S5 single-amino-acid substitution pairs; competition fluorescence polarization; probe FITC-Ahx-GDG-pY-EEISPLLL-NH2 30 nM; [SH2] 240 nM; mean

| Kd [nM] | Compound |
| --- | --- |
| 4670 | CC[C@H](C)[C@H](NC(=O)[C@@H]1CCCN1C(=O)[C@H](CCC(N)=O)NC(C)=O)C(=O)N[C@@H](Cc1ccccc1)C(=O)N[C@@H](CCC(=O)O)C(=O)NCC(=O)N[C@@H](Cc1ccc(OP(=O)(O)O)cc1)C(=O)N[C@@H](C)C(=O)N[C@@H](CC(C)C)C(=O)N1CCC[C@H]1C(=O)N[C@@H](Cc1c[nH]cn1)C(=O)N[C@@H](C)C(=O)NCC(N)=O [ACTA1 pY171] (Ac-QPIFEG[pY]ALPHAG-NH2) |
| 6090 | CC(=O)N[C@@H](CCC(N)=O)C(=O)N[C@@H](CO)C(=O)N[C@@H](CC(C)C)C(=O)N[C@@H](CCC(=O)O)C(=O)N[C@@H](CCCCN)C(=O)N[C@@H](CO)C(=O)N[C@@H](Cc1ccc(OP(=O)(O)O)cc1)C(=O)N[C@@H](CCC(=O)O)C(=O)N[C@@H](CC(C)C)C(=O)N[C@@H](CC(C)C)C(=O)N[C@@H](CC(=O)O)C(=O)NCC(=O)NCC(N)=O [ACTB pY240 P243L] (Ac-QSLEKS[pY]ELLDGG-NH2) |
| 9040 | CC(=O)N[C@@H](CCC(N)=O)C(=O)N[C@@H](CO)C(=O)N[C@@H](CC(C)C)C(=O)N[C@@H](CCC(=O)O)C(=O)N[C@@H](CCCCN)C(=O)N[C@@H](CO)C(=O)N[C@@H](Cc1ccc(OP(=O)(O)O)cc1)C(=O)N[C@@H](CCC(=O)O)C(=O)N[C@@H](CC(C)C)C(=O)N1CCC[C@H]1C(=O)N[C@@H](CC(=O)O)C(=O)NCC(=O)NCC(N)=O [ACTB pY240] (Ac-QSLEKS[pY]ELPDGG-NH2) |
| 4280 | CC[C@H](C)[C@H](NC(=O)CNC(=O)[C@H](CCC(=O)O)NC(=O)[C@@H](NC(=O)[C@H](CCC(N)=O)NC(C)=O)C(C)C)C(=O)N[C@@H](CO)C(=O)N[C@@H](Cc1ccc(OP(=O)(O)O)cc1)C(=O)N[C@@H](CC(=O)O)C(=O)N[C@@H](Cc1ccccc1)C(=O)N[C@H](C(=O)N1CCC[C@H]1C(=O)N[C@H](C(=O)NCC(N)=O)[C@@H](C)O)[C@@H](C)CC [CBS pY308 G307S] (Ac-QVEGIS[pY]DFIPTG-NH2) |
| 2730 | CC[C@H](C)[C@H](NC(=O)CNC(=O)[C@H](CCC(=O)O)NC(=O)[C@@H](NC(=O)[C@H](CCC(N)=O)NC(C)=O)C(C)C)C(=O)NCC(=O)N[C@@H](Cc1ccc(OP(=O)(O)O)cc1)C(=O)N[C@@H](CC(=O)O)C(=O)N[C@@H](Cc1ccccc1)C(=O)N[C@H](C(=O)N1CCC[C@H]1C(=O)N[C@H](C(=O)NCC(N)=O)[C@@H](C)O)[C@@H](C)CC [CBS pY308] (Ac-QVEGIG[pY]DFIPTG-NH2) |
| 3980 | CC[C@H](C)[C@H](NC(=O)[C@H](CC(C)C)NC(=O)[C@H](CO)NC(=O)[C@H](Cc1ccc(OP(=O)(O)O)cc1)NC(=O)[C@H](CCCNC(=N)N)NC(=O)[C@H](CCCNC(=N)N)NC(=O)[C@H](CCC(N)=O)NC(=O)[C@H](CC(=O)O)NC(=O)[C@H](CO)NC(=O)[C@H](CCC(N)=O)NC(C)=O)C(=O)N[C@@H](CC(=O)O)C(=O)N[C@@H](CCCNC(=N)N)C(=O)NCC(N)=O [CLIP2 pY972] (Ac-QSDQRR[pY]SLIDRG-NH2) |

The compounds below were run against T3, Fyn SH2 domain (Homo sapiens, UniProt P06241) (assay: Competitive fluorescence polarization, Fyn SH2). Settings: Table S3 unpaired validation; competition fluorescence polarization; probe FITC-Ahx-GDG-pY-EEISPLLL-NH2 0.4 nM; [SH2] 4.12 nM; mean.
T3 construct: The human SH2 domains from Fyn (142–248), Lyn (121–228); His6-SUMO (N, cleaved yes); made in house; host or cells: E. coli C43(DE3) with BirA helper plasmid
Assay type: binding
Procedure: Next, the protein was eluted with elution buffer (50 mM Tris, pH 7.5, 50 mM NaCl, 250 mM imidazole, 10% glycerol) directly onto a 5 mL HiTrap Q HP anion exchange column (Cytiva). […] The biotinylated SH2 domain was then collected in a flowthrough after running the cleavage reaction over a HisTrap HP column.

T3 sequence (P06241 142-248): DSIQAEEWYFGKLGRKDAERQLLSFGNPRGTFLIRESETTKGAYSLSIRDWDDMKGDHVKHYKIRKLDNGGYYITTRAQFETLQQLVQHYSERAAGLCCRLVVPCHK

| Kd [nM] | Compound |
| --- | --- |
| 30.2 | Ac-QLHVHP-pY-EKVEDG-NH2 [Syn-F-1 (synthetic)] |
| 18.3 | Ac-QMEKHV-pY-ESVTQG-NH2 [Syn-F-2 (synthetic)] |

From paper doi:10.1101/2024.12.23.630085, “Accurate sequence-to-affinity models for SH2 domains from multi-round peptide binding assays coupled with free-energy regression” (bioRxiv, 2025)
